Measured values published in ChEMBL document CHEMBL4414553, “Imidazopyridine-based selective and multifunctional ligands of biological targets associated with psychiatric and neurodegenerative diseases” (Eur J Med Chem, 2019).

Legend:
[1] = target: T1, Orexin/Hypocretin receptor type 1 (Homo sapiens, UniProt O43613); assay: Antagonist activity at human OX1R expressed in CHOK1 cells by Syto62 probe based fluorescence assay; assay type: cell-based
T1 sequence (O43613 whole entry): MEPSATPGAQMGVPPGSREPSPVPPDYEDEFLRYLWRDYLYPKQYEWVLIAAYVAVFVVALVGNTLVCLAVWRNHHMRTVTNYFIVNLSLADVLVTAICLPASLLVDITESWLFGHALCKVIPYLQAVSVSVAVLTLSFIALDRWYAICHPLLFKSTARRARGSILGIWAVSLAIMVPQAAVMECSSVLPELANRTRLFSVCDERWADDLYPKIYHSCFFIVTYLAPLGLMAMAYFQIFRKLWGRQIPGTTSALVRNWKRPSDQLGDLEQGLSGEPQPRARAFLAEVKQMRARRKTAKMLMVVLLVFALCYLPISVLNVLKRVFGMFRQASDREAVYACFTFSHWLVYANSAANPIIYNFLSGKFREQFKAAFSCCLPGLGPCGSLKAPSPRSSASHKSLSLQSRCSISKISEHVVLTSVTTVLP

Orexin receptor type 2 = target: T2, Orexin receptor type 2 (Homo sapiens, UniProt O43614); assay: Antagonist activity at human OX2R expressed in CHOK1 cells by Syto62 probe based fluorescence assay; assay type: cell-based
T2 sequence (O43614 whole entry): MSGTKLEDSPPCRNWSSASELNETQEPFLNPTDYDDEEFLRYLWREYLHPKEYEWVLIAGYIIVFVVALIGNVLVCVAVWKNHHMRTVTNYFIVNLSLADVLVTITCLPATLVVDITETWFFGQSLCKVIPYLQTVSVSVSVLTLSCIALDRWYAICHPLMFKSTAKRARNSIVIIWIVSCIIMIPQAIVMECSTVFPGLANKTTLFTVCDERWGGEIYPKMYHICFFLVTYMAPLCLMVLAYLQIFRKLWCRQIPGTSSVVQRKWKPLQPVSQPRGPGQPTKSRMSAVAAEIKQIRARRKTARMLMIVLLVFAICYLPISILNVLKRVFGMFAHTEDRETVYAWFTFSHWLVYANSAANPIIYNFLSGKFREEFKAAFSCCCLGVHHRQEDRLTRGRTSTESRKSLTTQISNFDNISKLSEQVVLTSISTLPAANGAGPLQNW

IC50 [1]: 89 nM
IC50 (Orexin receptor type 2): > 5870 nM
SMILES: O=C(c1nccc2[nH]cnc12)N1CCC(F)(F)C(Oc2ccc3ccccc3n2)C1 (configuration not stated)
